From patent publication US20140005163A1 (NOVARTIS AG, priority 2010, published 2014)

Columns and labels:
PI3K beta = target: T1, PI3K beta (Homo sapiens, UniProt P42338); experiment: PI3K beta kinase assay (Kinase-Glo luminescence); type: biochemical
T1 construct: for the full-length p110-b subunit are generated and fused by overlapping PCR; p85(iSH2) fusion partner (see partner chain) (N); His tag (C); made in house; host or cells: baculovirus; Tn5 (Trichoplusia ni) or TiniPro insect cells
Procedure, shortened: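 Full-length p110β with a Gly-linked p85 iSH2 and a C-terminal His tag (BV949, 25 nM) was incubated with 10 μg/mL phosphatidylinositol and 1 μM ATP in 10 mM Tris pH 7.5, 3 mM MgCl2, 50 mM NaCl, 0.05% CHAPS, 1 mM DTT for 60 min at room temperature. Residual ATP was read by Kinase-Glo luminescence.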

[1] = system: PKB Ser473 phosphorylation in Rat1-myr-HA-p110 beta cells; experiment: Reverse protein array assay, PKB Ser473 phosphorylation in Rat1-myr-p110 beta cells; type: cell-based; conditions: 0.5 h, pAkt Ser473, 30 minutes incubation, read-out: p-PKB IC50
Procedure, shortened: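 Cells: Rat1-myr-HA-p110 alpha/beta/delta, seeded ≥20 h. Lysis on ice 10 min; reverse-phase protein array, 4 lysate dilutions; fluorescence read, relative intensity.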

mTOR = target: T2, mTOR (Homo sapiens, UniProt P42345); experiment: Biochemical assay for m-TOR by TR-FRET; conditions: 8 μM ATP, 400 nM GFP-4EBP1, 0.5 nM mTOR
T2 construct: purchased Invitrogen Corporation (Carlsbad/CA, USA) PV4753
Procedure, shortened: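 mTOR (0.5 nM final) phosphorylated GFP-4EBP1 (400 nM final) with ATP (8 μM final) at rt in 50 mM HEPES pH 7.5, 10 mM MnCl2, 50 mM NaCl, 1 mM EGTA, 1 mM DTT. EDTA stop with Tb3+-anti-p4EBP1 [pThr46] antibody (0.5 nM); TR-FRET read 15 min later.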

T2 sequence (P42345 1360-2549 limits assumed): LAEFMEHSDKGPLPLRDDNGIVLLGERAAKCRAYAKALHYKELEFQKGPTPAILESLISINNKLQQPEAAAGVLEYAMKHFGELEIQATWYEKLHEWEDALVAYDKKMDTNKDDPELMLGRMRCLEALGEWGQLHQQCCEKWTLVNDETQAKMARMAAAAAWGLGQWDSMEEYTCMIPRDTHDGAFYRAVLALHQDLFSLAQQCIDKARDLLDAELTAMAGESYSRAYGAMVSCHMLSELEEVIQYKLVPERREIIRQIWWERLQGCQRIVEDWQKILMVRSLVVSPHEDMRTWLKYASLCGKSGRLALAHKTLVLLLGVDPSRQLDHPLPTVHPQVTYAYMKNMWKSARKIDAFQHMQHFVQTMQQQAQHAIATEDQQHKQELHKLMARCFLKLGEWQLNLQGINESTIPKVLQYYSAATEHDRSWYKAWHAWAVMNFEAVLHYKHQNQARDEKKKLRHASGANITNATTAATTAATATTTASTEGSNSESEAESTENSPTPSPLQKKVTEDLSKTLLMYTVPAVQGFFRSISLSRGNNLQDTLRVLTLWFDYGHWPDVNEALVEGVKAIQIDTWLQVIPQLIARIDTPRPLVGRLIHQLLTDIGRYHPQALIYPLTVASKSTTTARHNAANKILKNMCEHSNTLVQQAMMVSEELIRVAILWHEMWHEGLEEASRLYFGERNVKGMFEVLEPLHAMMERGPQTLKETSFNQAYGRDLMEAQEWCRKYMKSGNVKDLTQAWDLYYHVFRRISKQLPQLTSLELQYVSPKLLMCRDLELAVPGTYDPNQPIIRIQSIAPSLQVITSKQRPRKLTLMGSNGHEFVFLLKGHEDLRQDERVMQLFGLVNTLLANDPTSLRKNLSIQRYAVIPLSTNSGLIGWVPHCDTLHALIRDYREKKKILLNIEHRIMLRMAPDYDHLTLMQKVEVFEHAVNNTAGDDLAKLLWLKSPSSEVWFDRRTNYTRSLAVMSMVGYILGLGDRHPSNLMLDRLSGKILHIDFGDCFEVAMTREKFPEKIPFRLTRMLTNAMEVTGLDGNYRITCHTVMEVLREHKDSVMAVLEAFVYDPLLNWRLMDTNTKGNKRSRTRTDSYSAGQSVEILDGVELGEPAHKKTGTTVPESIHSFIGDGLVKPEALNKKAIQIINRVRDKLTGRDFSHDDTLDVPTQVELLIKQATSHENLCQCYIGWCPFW
T1 sequence (P42338 with tags, fused parts or gaps limits assumed): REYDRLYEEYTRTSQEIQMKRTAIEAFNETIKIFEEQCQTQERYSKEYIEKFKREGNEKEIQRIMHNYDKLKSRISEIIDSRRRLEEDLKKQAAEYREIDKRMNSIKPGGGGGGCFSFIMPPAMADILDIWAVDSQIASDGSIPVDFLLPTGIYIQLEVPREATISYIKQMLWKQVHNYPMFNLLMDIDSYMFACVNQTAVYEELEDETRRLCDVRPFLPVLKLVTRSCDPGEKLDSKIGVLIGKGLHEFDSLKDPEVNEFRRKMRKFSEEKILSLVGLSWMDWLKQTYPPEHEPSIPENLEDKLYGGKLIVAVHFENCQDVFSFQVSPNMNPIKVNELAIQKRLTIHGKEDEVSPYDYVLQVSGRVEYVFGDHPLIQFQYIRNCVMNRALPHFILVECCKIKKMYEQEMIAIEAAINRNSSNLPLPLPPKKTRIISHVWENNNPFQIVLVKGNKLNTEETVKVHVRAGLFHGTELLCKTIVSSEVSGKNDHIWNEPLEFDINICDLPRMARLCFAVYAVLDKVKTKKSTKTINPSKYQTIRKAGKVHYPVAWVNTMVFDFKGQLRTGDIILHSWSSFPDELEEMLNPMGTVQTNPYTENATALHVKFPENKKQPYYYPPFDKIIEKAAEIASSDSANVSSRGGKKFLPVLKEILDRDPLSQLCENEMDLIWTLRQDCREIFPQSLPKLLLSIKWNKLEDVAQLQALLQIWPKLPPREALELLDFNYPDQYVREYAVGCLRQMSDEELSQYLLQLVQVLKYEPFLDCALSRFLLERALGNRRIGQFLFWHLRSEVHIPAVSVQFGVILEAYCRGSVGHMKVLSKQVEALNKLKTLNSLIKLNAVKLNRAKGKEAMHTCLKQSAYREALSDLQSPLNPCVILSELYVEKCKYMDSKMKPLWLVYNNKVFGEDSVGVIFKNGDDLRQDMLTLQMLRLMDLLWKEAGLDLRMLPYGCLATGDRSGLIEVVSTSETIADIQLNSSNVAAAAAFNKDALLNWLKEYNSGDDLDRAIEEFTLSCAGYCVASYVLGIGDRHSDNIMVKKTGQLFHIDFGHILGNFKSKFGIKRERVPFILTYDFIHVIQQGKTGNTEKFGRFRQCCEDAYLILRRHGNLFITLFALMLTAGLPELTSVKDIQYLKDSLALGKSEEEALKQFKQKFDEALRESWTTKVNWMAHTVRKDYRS

Compound | IC50 (PI3K beta) [nM] | IC50 [1] [nM] | IC50 (mTOR) [nM]
CNC(=O)c1ccc(-c2ccc3ncc4c(c3c2)n(-c2cn(C)nc2C)c(=O)n4C)cn1 [Example 15.1, 5-[1-(1,3-Dimethyl-1H-pyrazol-4-yl)-3-methyl-2-oxo-2,3-dihydro-1H-imidazo[4,5-c]quinolin-8-yl]-pyridine-2-carboxylic acid methylamide] | 255 | 21 | 13
Cc1nn(C(C)C)cc1-n1c(=O)n(C)c2cnc3ccc(-c4ccc(CO)nc4)cc3c21 [Example 16.3, 8-(6-hydroxymethyl-pyridin-3-yl)-1-(1-isopropyl-3-methyl-1H-pyrazol-4-yl)-3-methyl-1,3-dihydro-imidazo[4,5-c]quinolin-2-one] | 404 | 39 | 45
CCn1cc(-n2c(=O)n(C)c3cnc4ccc(-c5cnc(OC)nc5)cc4c32)c(C)n1 [Example 17.1, 1-(1-Ethyl-3-methyl-1H-pyrazol-4-yl)-8-(2-methoxy-pyrimidin-5-yl)-3-methyl-1,3-dihydro-imidazo[4,5-c]quinolin-2-one] | 120 | 57 | 59
COc1ncc(-c2ccc3ncc4c(c3c2)n(-c2cn(C)nc2C)c(=O)n4C)cn1 [Example 17.2, 1-(1,3-Dimethyl-1H-pyrazol-4-yl)-8-(2-methoxy-pyrimidin-5-yl)-3-methyl-1,3-dihydro-imidazo[4,5-c]quinolin-2-one] | 206 | 40 | 68
COc1ncc(-c2ccc3ncc4c(c3c2)n(-c2cn(C)nc2Cl)c(=O)n4C)cn1 [Example 17.3, 1-(3-Chloro-1-methyl-1H-pyrazol-4-yl)-8-(2-methoxy-pyrimidin-5-yl)-3-methyl-1,3-dihydro-imidazo[4,5-c]quinolin-2-one] | 37 | 22 | 12
Cc1nn(C)cc1-n1c(=O)n(C)c2cnc3ccc(-c4ccc(N)nc4)cc3c21 [Example 23.1, 8-(6-Amino-pyridin-3-yl)-1-(1,3-dimethyl-1H-pyrazol-4-yl)-3-methyl-1,3-dihydro-imidazo[4,5-c]quinolin-2-one] | 41 | 7 | 4
Cc1nn(C(C)C)cc1-n1c(=O)n(C)c2cnc3ccc(-c4ccc(N)nc4)cc3c21 [Example 23.2, 8-(6-Amino-pyridin-3-yl)-1-(1-isopropyl-3-methyl-1H-pyrazol-4-yl)-3-methyl-1,3-dihydro-imidazo[4,5-c]quinolin-2-one] | 197 | 6 | 7
CCOc1ccc(-c2ccc3ncc4c(c3c2)n(-c2c(C)nn(C)c2C)c(=O)n4C)cc1OC [Example 29.2, 8-(4-Ethoxy-3-methoxy-phenyl)-3-methyl-1-(1,3,5-trimethyl-1H-pyrazol-4-yl)-1,3-dihydro-midazo[4,5-c]quinolin-2-one] | 167 | 143 | 778
COCCOc1ccc(-c2ccc3ncc4c(c3c2)n(-c2cn(C)nc2C)c(=O)n4C)cc1OC [Example 30.1, 1-(1,3-Dimethyl-1H-pyrazol-4-yl)-8-[3-methoxy-4-(2-methoxy-ethoxy)-phenyl]-3-methyl-1,3-dihydro-imidazo[4,5-c]quinolin-2-one] | 157 | 38 | 52
CNC(=O)c1ccc(-c2ccc3ncc4c(c3c2)n(-c2cn(C)nc2C)c(=O)n4C)cc1 [Example 43.1, 4-[1-(1,3-Dimethyl-1H-pyrazol-4-yl)-3-methyl-2-oxo-2,3-dihydro-1H-imidazo[4,5-c]quinolin-8-yl]-N-methyl-benzamide] | 190 | 11 | < 3
Cc1nn(C)cc1-n1c(=O)n(C)c2cnc3ccc(-c4cncc(N)c4)cc3c21 [Example 45.1, 8-(5-Amino-pyridin-3-yl)-1-(1,3-dimethyl-1H-pyrazol-4-yl)-3-methyl-1,3-dihydro-imidazo[4,5-c]quinolin-2-one] | 47 | 80 | 7
CCOc1ncc(-c2ccc3ncc4c(c3c2)n(-c2cn(C)nc2C)c(=O)n4C)cn1 [Example 52, 1-(1,3-Dimethyl-1H-pyrazol-4-yl)-8-(2-ethoxy-pyrimidin-5-yl)-3-methyl-1,3-dihydro-imidazo[4,5-c]quinolin-2-one] | 343 | 9 | 74
COCc1cncc(-c2ccc3ncc4c(c3c2)n(-c2cn(C)nc2Cl)c(=O)n4C)c1 [Example 54.2, 1-(3-Chloro-1-methyl-1H-pyrazol-4-yl)-8-(5-methoxymethyl-pyridin-3-yl)-3-methyl-1,3-dihydro-imidazo[4,5-c]quinolin-2-one] | 51 | 43 | 94
CCOc1cncc(-c2ccc3ncc4c(c3c2)n(-c2cn(C)nc2C)c(=O)n4C)c1 [Example 56.1, 1-(1,3-Dimethyl-1H-pyrazol-4-yl)-8-(5-ethoxy-pyridin-3-yl)-3-methyl-1,3-dihydro-imidazo[4,5-c]quinolin-2-one] | 6 | 29 | 15
CCn1cc(-n2c(=O)n(C)c3cnc4ccc(-c5cncc(OC(C)C)c5)cc4c32)c(C)n1 [Example 58.4, 1-(1-Ethyl-3-methyl-1H-pyrazol-4-yl)-8-(5-isopropoxy-pyridin-3-yl)-3-methyl-1,3-dihydro-imidazo[4,5-c]quinolin-2-one] | 29 | 139 | 31
COCCOc1cncc(-c2ccc3ncc4c(c3c2)n(-c2cn(C)nc2C)c(=O)n4C)c1 [Example 59.1, 1-(1,3-Dimethyl-1H-pyrazol-4-yl)-8-[5-(2-methoxy-ethoxy)-pyridin-3-yl]-3-methyl-1,3-dihydro-imidazo[4,5-c]quinolin-2-one] | 89 | 265 | 96
Cc1nn(C)cc1-n1c(=O)n(C)c2cnc3ccc(-c4cncc(OCC5CC5)c4)cc3c21 [Example 61, 8-(5-Cyclopropylmethoxy-pyridin-3-yl)-1-(1,3-dimethyl-1H-pyrazol-4-yl)-3-methyl-1,3-dihydro-imidazo[4,5-c]quinolin-2-one] | 25 | 28 | 65
Cc1nn(C)c(C)c1-n1c(=O)n(C)c2cnc3ccc(-c4cnc(N)nc4)cc3c21 [Example 81.2, 8-(2-Amino-pyrimidin-5-yl)-3-methyl-1-(1,3,5-trimethyl-1H-pyrazol-4-yl)-1,3-dihydro-imidazo[4,5-c]quinolin-2-one] | 281 | 295 | 324
CCOc1cc(-c2ccc3ncc4c(c3c2)n(-c2cn(C)nc2C)c(=O)n4C)cnc1C [Example 85.1, 1-(1,3-Dimethyl-1H-pyrazol-4-yl)-8-(5-ethoxy-6-methyl-pyridin-3-yl)-3-methyl-1,3-dihydro-imidazo[4,5-c]quinolin-2-one] | 12 | 6 | 17
Cc1ncc(-c2ccc3ncc4c(c3c2)n(-c2cn(C)nc2Cl)c(=O)n4C)cc1N [Example 88.1, 8-(5-Amino-6-methyl-pyridin-3-yl)-1-(3-chloro-1-methyl-1H-pyrazol-4-yl)-3-methyl-1,3-dihydro-imidazo[4,5-c]quinolin-2-one] | 28 | 8 | 8
